Laboratory results from publication doi:10.1101/2024.01.03.574093v2 (biorxiv, 2024).
Like-named read-outs stand apart in the source and are kept apart here. *1 amine or outer side, *2 acyl side, *3 side chain or, on linkers, in order; H or OH if unused. Where a SMILES comes first, the peptide text is derived from it. [ ]: non-standard residue; d: D form. The star is where a group is joined. X1 = Cc1nc(N[*:1])sc1-c1cc(C(=O)[*:2])n[nH]1; Bz = O=C(c1ccccc1)*

Columns and labels:
Assay in all cases: cell-based
JHR (GCE:TAI) [1] = biological target: T1, JHR (GCE:TAI) (Drosophila melanogaster, UniProt Q9VXW7); conditions: Drosophila Kc167, read-out: JHR Efficacy [%]
T1 sequence (Q9VXW7 1-959): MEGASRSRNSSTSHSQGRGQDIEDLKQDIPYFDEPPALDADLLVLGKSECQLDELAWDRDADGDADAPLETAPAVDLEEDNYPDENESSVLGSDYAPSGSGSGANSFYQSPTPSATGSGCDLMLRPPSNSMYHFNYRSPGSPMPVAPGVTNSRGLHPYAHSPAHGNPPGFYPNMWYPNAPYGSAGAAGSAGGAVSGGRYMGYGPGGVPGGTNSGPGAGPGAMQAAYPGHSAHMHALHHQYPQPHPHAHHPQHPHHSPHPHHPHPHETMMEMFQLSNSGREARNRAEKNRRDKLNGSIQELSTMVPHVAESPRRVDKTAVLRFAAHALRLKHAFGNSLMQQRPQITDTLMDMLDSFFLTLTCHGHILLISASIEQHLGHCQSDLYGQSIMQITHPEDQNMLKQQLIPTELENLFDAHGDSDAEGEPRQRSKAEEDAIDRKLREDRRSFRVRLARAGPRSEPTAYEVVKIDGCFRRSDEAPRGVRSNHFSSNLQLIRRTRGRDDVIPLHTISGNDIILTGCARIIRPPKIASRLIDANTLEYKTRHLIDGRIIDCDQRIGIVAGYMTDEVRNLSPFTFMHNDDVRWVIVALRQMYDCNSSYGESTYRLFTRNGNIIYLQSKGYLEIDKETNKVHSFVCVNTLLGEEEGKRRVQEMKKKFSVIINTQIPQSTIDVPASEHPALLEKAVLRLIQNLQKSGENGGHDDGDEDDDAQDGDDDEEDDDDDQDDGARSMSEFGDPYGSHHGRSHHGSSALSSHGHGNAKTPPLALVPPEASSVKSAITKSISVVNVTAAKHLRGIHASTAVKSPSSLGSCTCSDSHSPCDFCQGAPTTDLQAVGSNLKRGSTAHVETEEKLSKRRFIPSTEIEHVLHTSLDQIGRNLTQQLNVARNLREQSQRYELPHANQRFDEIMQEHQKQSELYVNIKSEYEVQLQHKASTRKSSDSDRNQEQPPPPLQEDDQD
T1 sequence (Q9VLD9 1-2026 partner): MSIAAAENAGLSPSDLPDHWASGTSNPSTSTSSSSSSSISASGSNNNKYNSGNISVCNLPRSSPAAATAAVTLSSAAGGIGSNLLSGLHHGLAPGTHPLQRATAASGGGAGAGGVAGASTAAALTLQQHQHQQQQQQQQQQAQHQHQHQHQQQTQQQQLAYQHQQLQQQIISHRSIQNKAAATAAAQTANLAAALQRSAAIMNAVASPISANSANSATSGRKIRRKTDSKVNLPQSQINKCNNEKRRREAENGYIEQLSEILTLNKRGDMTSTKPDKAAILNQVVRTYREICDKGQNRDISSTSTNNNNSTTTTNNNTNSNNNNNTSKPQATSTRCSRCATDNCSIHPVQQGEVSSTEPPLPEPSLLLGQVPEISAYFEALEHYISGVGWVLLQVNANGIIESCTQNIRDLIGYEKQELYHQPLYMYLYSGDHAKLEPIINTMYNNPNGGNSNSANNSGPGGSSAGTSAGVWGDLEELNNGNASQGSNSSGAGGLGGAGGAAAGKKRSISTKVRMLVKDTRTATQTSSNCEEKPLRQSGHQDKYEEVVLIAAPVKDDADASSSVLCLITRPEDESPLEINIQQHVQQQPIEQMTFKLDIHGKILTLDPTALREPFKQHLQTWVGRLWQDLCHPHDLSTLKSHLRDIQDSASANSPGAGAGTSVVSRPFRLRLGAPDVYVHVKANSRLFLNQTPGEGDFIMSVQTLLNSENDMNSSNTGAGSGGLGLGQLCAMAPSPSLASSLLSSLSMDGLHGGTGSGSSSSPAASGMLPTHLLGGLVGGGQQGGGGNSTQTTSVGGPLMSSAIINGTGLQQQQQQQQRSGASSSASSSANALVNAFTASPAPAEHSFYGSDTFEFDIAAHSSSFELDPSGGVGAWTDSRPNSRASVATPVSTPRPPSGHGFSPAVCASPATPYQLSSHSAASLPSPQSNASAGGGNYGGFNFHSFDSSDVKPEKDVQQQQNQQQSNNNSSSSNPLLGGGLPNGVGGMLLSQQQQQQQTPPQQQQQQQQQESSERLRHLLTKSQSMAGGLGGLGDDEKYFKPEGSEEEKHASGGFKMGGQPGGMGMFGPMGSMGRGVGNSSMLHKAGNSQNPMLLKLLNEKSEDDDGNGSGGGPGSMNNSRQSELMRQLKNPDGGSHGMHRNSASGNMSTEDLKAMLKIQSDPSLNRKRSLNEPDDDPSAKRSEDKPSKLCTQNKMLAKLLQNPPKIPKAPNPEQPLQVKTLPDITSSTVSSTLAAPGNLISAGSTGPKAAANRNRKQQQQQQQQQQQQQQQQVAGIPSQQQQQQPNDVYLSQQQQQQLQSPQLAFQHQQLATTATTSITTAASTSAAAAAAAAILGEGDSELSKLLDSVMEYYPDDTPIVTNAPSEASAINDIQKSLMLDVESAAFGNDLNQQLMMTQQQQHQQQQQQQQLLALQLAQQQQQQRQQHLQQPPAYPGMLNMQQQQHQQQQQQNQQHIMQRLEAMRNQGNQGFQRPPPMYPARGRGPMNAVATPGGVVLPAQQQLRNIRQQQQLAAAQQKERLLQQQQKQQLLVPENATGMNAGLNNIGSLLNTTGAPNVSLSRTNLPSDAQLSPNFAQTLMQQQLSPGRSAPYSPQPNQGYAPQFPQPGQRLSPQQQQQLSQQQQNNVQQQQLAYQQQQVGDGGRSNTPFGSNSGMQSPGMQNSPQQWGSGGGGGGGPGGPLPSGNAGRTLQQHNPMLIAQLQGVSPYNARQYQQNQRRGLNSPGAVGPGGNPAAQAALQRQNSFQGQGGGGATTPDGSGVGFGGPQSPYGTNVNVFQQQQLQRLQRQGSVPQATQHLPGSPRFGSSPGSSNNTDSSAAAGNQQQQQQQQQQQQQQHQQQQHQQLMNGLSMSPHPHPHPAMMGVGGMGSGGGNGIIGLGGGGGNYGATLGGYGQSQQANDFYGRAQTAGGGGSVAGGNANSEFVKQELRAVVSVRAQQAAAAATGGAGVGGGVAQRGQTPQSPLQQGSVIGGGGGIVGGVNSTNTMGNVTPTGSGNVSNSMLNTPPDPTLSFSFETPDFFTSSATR

human AHR [2] = biological target: T2, human AHR (Homo sapiens, UniProt P35869); design: species or system HepG2 (AZ-AHR); conditions: HepG2, read-out: AHR Efficacy [%], AGO
T2 sequence (P35869 11-848): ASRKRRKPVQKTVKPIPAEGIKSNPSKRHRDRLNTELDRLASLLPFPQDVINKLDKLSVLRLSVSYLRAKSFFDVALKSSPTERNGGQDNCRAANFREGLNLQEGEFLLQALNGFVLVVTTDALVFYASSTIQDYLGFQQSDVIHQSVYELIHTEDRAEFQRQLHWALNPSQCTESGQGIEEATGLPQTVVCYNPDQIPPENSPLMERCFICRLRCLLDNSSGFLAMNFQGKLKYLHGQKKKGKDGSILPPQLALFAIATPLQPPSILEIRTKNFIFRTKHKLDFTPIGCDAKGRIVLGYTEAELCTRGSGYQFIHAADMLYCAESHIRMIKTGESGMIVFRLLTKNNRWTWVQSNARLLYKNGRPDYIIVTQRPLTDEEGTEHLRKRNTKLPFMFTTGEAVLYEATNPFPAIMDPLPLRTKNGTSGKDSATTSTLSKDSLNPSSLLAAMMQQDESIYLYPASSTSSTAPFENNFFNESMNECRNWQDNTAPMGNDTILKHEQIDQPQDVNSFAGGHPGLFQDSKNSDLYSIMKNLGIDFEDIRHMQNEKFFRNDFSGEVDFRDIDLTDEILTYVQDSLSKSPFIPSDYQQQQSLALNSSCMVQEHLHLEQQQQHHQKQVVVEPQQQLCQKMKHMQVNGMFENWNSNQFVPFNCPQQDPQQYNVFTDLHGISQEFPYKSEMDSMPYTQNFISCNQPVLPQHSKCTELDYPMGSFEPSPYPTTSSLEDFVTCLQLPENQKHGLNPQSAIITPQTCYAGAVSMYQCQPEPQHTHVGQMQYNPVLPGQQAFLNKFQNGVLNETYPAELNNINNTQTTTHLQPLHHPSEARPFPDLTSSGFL
T2 sequence (P27540 2-789 partner): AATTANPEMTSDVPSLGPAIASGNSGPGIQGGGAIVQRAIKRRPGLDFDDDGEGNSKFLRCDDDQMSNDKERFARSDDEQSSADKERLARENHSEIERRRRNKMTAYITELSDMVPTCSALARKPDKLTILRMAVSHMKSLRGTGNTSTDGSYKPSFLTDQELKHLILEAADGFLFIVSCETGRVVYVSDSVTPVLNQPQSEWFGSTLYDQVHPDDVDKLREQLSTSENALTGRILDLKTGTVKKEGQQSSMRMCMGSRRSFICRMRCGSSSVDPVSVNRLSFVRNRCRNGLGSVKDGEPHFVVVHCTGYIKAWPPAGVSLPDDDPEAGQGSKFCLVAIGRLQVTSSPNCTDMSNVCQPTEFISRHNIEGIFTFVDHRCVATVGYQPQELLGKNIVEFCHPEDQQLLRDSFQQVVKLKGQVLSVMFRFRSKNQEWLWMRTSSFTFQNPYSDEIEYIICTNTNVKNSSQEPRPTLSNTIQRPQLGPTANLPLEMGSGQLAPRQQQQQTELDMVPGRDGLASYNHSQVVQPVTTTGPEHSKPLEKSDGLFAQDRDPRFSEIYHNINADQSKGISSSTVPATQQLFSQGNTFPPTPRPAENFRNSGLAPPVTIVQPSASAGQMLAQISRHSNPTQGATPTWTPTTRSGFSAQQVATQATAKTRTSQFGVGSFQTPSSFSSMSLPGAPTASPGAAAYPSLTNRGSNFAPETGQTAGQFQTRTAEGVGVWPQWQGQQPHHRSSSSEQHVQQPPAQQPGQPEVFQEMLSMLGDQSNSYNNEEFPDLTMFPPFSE
JHR (GCE:TAI) [3] = biological target: T1, JHR (GCE:TAI); conditions: Drosophila Kc167, read-out: JHR Efficacy [%]; remark: listed apart in the source
human AHR [4] = biological target: T2, human AHR; design: species or system HepG2 (AZ-AHR); conditions: HepG2, read-out: AHR Efficacy [%]

Structure (SMILES)	Emax (JHR (GCE:TAI) [1])	Emax (human AHR [2])	Emax (JHR (GCE:TAI) [3])	Emax (human AHR [4])
Cc1nc(NC(=O)c2ccccc2)sc1-c1cc(C(=O)NCC(=O)N[C@H](CCCN=C(N)N)C(=O)NCC(=O)N[C@H](CC(=O)O)C(=O)N[C@H](CC(=O)O)C(=O)N[C@H](CC(=O)O)C(N)=O)n[nH]1 [cmpd 2.1] (Bz-[X1]G[dR]G[dD][dD][dD]-NH2)	143%	52%	–	–
Cc1csc(CCNC(=O)c2cnc(-c3ccccc3)nc2)n1 [cmpd 2.10]	–	–	128%	30%
CC(C)c1c(C(=O)NCC2CCCO2)nnn1-c1ccc(Br)cc1 (stereo not shown) [cmpd 1.3]	254%	–	–	–
CC(COc1ccc(Oc2ccccc2)cc1)Oc1ccccn1 (stereo not shown) [pyriproxyfen]	–	–	62%	–
CN(C(=O)CN1CCOC(c2nccs2)C1)c1nccs1 (stereo not shown) [cmpd 1.4]	266%	–	–	–
Cc1nc(-c2ccsc2)sc1C(=O)Nc1cnn(C)c1 [cmpd 1.1]	183%	19%	–	–
OC(COc1ccc2cc(Br)ccc2c1)Cn1cccn1 (stereo not shown) [cmpd 2.9]	–	–	70%	19%
O=C(Nc1ccc(-c2nccs2)cc1)c1ccccc1C(F)(F)F [cmpd 2.3]	–	–	88%	–
CC(NC(=O)CSCc1ccccc1)c1ccc(-n2ccnc2)cc1 (stereo not shown) [cmpd 2.12]	–	–	109%	45%
O=C(NCCCn1cccn1)c1ccc(C2CCCCC2)cc1 [cmpd 2.6]	–	–	76%	14%
CC(Sc1nccn1C)C(=O)Nc1nc(-c2ccccc2)cs1 (stereo not shown) [cmpd 2.2]	–	–	110%	103%
Cc1c(C(=O)Nc2ccc3ncccc3c2)sc2ccccc12 [2.7, cmpd 2.7]	85%	–	–	–
Cc1c(C(=O)NCCc2cccnc2)oc2ccc(F)cc12 [cmpd 2.8]	–	–	126%	87%
O=C(CCSc1nnc2ccccn12)NC(=O)NCc1ccccc1 [cmpd 1.2]	–	–	83%	–
